The source of these data is US20260297105A1, “RAF-MEK PROTEIN COMPLEX MODULATORS AND METHODS OF USE THEREOF” (GANDEEVA THERAPEUTICS, INC., priority 2023, published 2026).

One assay concerns the target T1, MEK1 (Homo sapiens, UniProt Q02750).
T1 construct: purchased SignalChem M02-14H
The assay is described as follows: MEK1 kinase cascade assay (ADP-Glo), inhibition of MEK1 kinase activity. Format: biochemical. Conditions: 25 nM BRAF, 6.25 nM MEK1, 0.5 μM ERK, 1 mM ATP; 20 min preincubation, 1 hr at 25° C.; read-out: BRAF ADP Glo kinase assay V3 (IC50). Put shortly:
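Cascade format with ADP-Glo read-out: BRAF (25 nM) and compound, 1% DMSO, 20 mins at 25° C, then MEK1 6.25 nM, ERK1 0.5 μM, ATP 1 mM for 1 hr at 25° C in HEPES pH 7.5 buffer with MgCl2, CHAPS and DTT. Percent inhibition, scaled between DMSO and 1 μM Trametinib, was fit by 4-parameter logistic to give IC50 (2 replicate wells).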
On the technique in general: ADP-Glo turns the ADP formed in a reaction into a luminescent signal.

The next assay has as its system BRAF-MEK1. The assay is described as follows: BRAF-MEK TR-FRET assay, stabilization of MEK1 and BRAF interaction. Format: binding. Conditions: 4 nM BRAF, 10 nM MEK, 100 μM ATP; 1 hr at 25° C.; read-out: BRAF-MEK TR-FRET Assay (EC50, fold stabilization). In outline:
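Read-out is fold stabilization (treated FRET ratio/DMSO, Em 665/620 nm), fit 4-parameter for EC50 from 2 replicates. Compounds sat with 4 nM GST-BRAF and 10 nM in-house His-MEK1 1 h at 25° C (Tris pH 7.5, MgCl2, 100 μM ATP), then detection antibodies 1 h.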
(TR-FRET usually uses a lanthanide donor and a delayed reading to cut background.)

The test system of the next assay is p-ERK1/2 in HCT116 cells. Description: AlphaLISA p-ERK assay, cellular inhibition of ERK phosphorylation in HCT116 cells. Conditions: Homo sapiens, HCT-116, 2 hours treatment, PMA stimulation 30 mins. Format: cell-based. As to the method: Cell culture: HCTI 16, HT-29, and NCI-H292 cells were acquired from American Type Culture Collection (ATCC). HCT116 and HT-29 cells were maintained in ATCC-formulated McCoy's 5a Medium Modified supplemented with 10% fetal bovine serum, NCI-H292 cells were cultured in ATCC formulated RPMI-1640 supplemented with 10% fetal bovine serum. All cells were maintained at 37° C., 5% CO2.
Efficacy of exemplary compounds in cellular inhibition of ERK phosphorylation: Phosphorylation status of ERK1/2 (p-ERK) was used as a readout for inhibition of BRAF-MEK pathway. p-ERK was detected using an immunoassay for quantitative detection of phospho-ERK 1/2 (phosphorylated on Thr202/Tyr204 in ERK1, or Thr185/Tyr187 in ERK2), such as the AlphaLISA® SureFire® Ultra™ p-ERK1/2 (Thr202/Tyr204) kit (Perkin Elmer). HCT116 cells were plated at 10,000 cells per well in 384-well TC-treated plates (Coming). Cells were plated for 24 hours, the medium was then aspirated and cells were treated with vehicle (DMSO) or test compounds (0.1% DMSO in final volume) prepared in serum free, phenol red free medium for 2 hours. Following treatment, cells were stimulated with PMA (1.25 μM/well) for 30 mins after which the medium was aspirated, and the cells were lysed for 10 mins with 1× lysis buffer supplemented with Halt Protease and Phosphatase Inhibitor Cocktail (Thermo Fisher). The lysate was transferred to a 384 well Alpha-plate (PerkinElmer) and incubated for 1 hour with acceptor bead mix followed by 1 hour incubation with donor bead mix. After incubation, the plate was read on a Cytation5 microplate reader (Agilent). % inhibition as a function of compound concentration from 3 replicate wells was fit with a 4-parameter logistic curve using GraphPad Prism or CDD Vault to derive IC50 values.
In this table, for the BRAF ADP Glo kinase assay, “A” indicates IC50 of less than 5 nM; “B” indicates IC50 of between 5 nM to 50 nM; and “C” indicates IC50 of between 50 nM to 500 nM. “D” indicates IC50 of greater than 500 nM. For the BRAF-MEK TR-FRET assay, “A” indicates EC50 of less than 50 nM; “B” indicates EC50 of between 50 nM to 200 nM; and “C” indicates EC50 of between 200 nM to 1 μM. “D′” indicates EC50 of greater than 1 μM. For the AlphaLisa P-ERK assay, “A” indicates IC50 of less than 1 nM; “B” indicates IC50 of between 1 nM to 10 nM; and “C” indicates IC50 of between 10 nM to 100 nM. “D” indicates IC50 of greater than 100 nM. For the cell viability assay, “A” indicates IC50 of less than 1 nM; “B” indicates IC50 of between 1 nM to 10 nM; and “C” indicates IC50 of between 10 nM to 100 nM. “D” indicates IC50 of greater than 100 nM.

The next assay concerns NCI-H292 cells. The assay is described as follows: Cell viability assay (CellTiter-Glo), NCI-H292. Format: cell-based. Conditions: Homo sapiens, 72 hrs, read-out: Cell Viability Assay: IC50 Determination NCI-H292. In outline: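 Cells seeded at 2,000 per well in RPMI-1640 with 10% FBS, treated 24 h later with compound (0.1% DMSO) for 72 h. Viability read by CellTiter-Glo luminescence; IC50 from 4-parameter logistic fit of % inhibition over 3 replicate wells.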
For orientation: In ATP-based viability assays light output follows the ATP content of the culture.

T1 sequence (Q02750 whole entry): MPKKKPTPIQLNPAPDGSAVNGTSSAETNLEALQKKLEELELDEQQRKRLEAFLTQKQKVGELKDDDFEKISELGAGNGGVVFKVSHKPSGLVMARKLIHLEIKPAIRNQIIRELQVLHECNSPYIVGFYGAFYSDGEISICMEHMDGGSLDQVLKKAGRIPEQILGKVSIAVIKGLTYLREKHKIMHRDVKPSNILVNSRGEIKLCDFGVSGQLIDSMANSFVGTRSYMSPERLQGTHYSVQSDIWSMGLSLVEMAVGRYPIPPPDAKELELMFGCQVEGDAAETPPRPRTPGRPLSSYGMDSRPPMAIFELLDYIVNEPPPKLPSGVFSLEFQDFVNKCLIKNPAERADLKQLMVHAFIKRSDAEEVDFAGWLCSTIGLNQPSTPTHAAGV
T1 sequence (P15056 445-723 partner limits assumed): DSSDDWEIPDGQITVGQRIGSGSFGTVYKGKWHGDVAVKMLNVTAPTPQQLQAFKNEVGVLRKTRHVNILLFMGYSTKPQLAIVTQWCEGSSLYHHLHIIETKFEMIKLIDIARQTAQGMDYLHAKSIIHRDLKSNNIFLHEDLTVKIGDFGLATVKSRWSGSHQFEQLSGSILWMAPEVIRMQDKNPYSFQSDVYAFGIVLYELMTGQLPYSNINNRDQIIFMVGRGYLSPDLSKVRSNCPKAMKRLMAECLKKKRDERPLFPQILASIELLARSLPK

As for `CNS(=O)(=O)Nc1cccc(CN2C(=O)Oc3cc(OC(=O)N(C)C)ccc3C23COC3)c1F` [Compound 115, 3-({2-fluoro-3-[(methylsulfamoyl)amino]phenyl}methyl)-2-oxo-2,3-dihydrospiro[1,3-benzoxazine-4,3′-oxetan]-7-yl N,N-dimethylcarbamate], the values for the IC50 on MEK1, in the assay on p-ERK1/2 in HCT116 cells and in the assay on NCI-H292 cells were less than 5 nM, 1 to 10 nM and less than 1 nM, respectively. Moreover, the EC50 in the assay on BRAF-MEK1 was in the range of 50 to 200 nM.
The corresponding values for `CN(C)S(=O)(=O)Nc1cccc(CN2C(=O)Oc3c(ccc(Oc4cccnn4)c3F)C23COC3)c1F` [Compound 40, 3-({3-[(dimethylsulfamoyl)amino]-2-fluorophenyl}methyl)-8-fluoro-7-(pyridazin-3-yloxy)-2,3-dihydrospiro[1,3-benzoxazine-4,3′-oxetan]-2-one] are 5 to 50 nM, 10 to 100 nM, 1 to 10 nM and 50 to 200 nM.
In the case of `CNS(=O)(=O)Nc1nccc(CN2Cc3ccc(Oc4nccnn4)cc3OC2=O)c1F` [Compound 164, 3-{[3-fluoro-2-(methylaminosulfonylamino)-4-pyridyl]methyl}-7-(1,2,4-triazin-3-yloxy)-3,4-dihydro-2H-1,3-benzoxazin-2-one], the IC50 is 5 to 50 nM on MEK1, 10 to 100 nM in the assay on p-ERK1/2 in HCT116 cells and less than 1 nM in the assay on NCI-H292 cells. Moreover, the EC50 in the assay with BRAF-MEK1 was less than 50 nM.
The corresponding values for `CNS(=O)(=O)Nc1cccc(CN2C(=O)Oc3cc(Oc4cccnn4)ccc3C23CCC3)c1F` [Compound 41, 3-({2-fluoro-3-[(methylsulfamoyl)amino]phenyl}methyl)-7-(pyridazin-3-yloxy)-2,3-dihydrospiro[1,3-benzoxazine-4,1′-cyclobutan]-2-one] are less than 5 nM, 1 to 10 nM, 1 to 10 nM and less than 50 nM.
Turning to `CN(C)S(=O)(=O)Nc1cccc(CN2C(=O)Oc3cc(Oc4cccnn4)ccc3C23COC3)c1F` [Compound 64, 3-({3-[(dimethylsulfamoyl)amino]-2-fluorophenyl}methyl)-7-(pyridazin-3-yloxy)-2,3-dihydrospiro[1,3-benzoxazine-4,3′-oxetan]-2-one], the IC50 was less than 5 nM on MEK1, 1 to 10 nM in the assay with p-ERK1/2 in HCT116 cells and 1 to 10 nM in the assay with NCI-H292 cells. Moreover, the EC50 in the assay with BRAF-MEK1 was in the range of 50 to 200 nM.
For the molecule `O=C1Oc2cc(Oc3cccnn3)c(F)cc2C2(COC2)N1Cc1cccc(NS(=O)(=O)C2CC2)c1F` [Compound 53, N-(2-fluoro-3-{[6-fluoro-2-oxo-7-(pyridazin-3-yloxy)-2,3-dihydrospiro[1,3-benzoxazine-4,3′-oxetan]-3-yl]methyl}phenyl)cyclopropanesulfonamide], the IC50 at MEK1 was in the range of 5 to 50 nM; with p-ERK1/2 in HCT116 cells, 10 to 100 nM; with NCI-H292 cells it was 1 to 10 nM. Further, the EC50 with BRAF-MEK1 lay in the range of 50 to 200 nM.
`CNS(=O)(=O)Nc1cccc(CN2C(=O)Oc3cc(Oc4cccnn4)ccc3[C@@H]2C)c1F` (single isomer, unassigned) [Compound 72, (R)-3-({2-fluoro-3-(methylsulfamoyl)amino]phenyl}methyl)-4-methyl-7-(pyridazin-3-yloxy)-3,4-dihydro-2H-1,3-benzoxazin-2-one or (S)-3-({2-fluoro-3-(methylsulfamoyl)amino]phenyl}methyl)-4-methyl-7-(pyridazin-3-yloxy)-3,4-dihydro-2H-1,3-benzoxazin-2-one]: the IC50 at MEK1 was in the range of 5 to 50 nM; with p-ERK1/2 in HCT116 cells, 1 to 10 nM; in the assay on NCI-H292 cells it was 1 to 10 nM. Also, the EC50 in the assay with BRAF-MEK1 was in the range of 50 to 200 nM.
For `CNS(=O)(=O)Nc1cccc(CN2Cc3ccc(Oc4ncco4)cc3OC2=O)c1F` [Compound 80, 3-({2-fluoro-3-[(methylsulfamoyl)amino]phenyl}methyl)-7-(1,3-oxazol-2-yloxy)-3,4-dihydro-2H-1,3-benzoxazin-2-one], the half-inhibitory concentration (IC50) on MEK1 was in the range of 5 to 50 nM; in the assay with p-ERK1/2 in HCT116 cells, 10 to 100 nM; in the assay with NCI-H292 cells it was 1 to 10 nM. The EC50 with BRAF-MEK1 was in the range of 200 to 1000 nM.
The corresponding values for `CNS(=O)(=O)Nc1cccc(CN2Cc3ccc(Oc4cccnn4)cc3OC2=O)c1F` [Compound 105, 3-({2-fluoro-3-[(methylsulfamoyl)amino]phenyl}methyl)-7-(pyridazin-3-yloxy)-3,4-dihydro-2H-1,3-benzoxazin-2-one] are less than 5 nM, 1 to 10 nM, 1 to 10 nM and less than 50 nM.
Take `CNS(=O)(=O)Nc1cccc(CN2C(=O)Oc3cc(Oc4ncco4)ccc3C23COC3)c1F` [Compound 95, 3-({2-fluoro-3-[(methylsulfamoyl)amino]phenyl}methyl)-7-(1,3-oxazol-2-yloxy)-2,3-dihydrospiro[1,3-benzoxazine-4,3′-oxetan]-2-one]: the IC50 on MEK1 is less than 5 nM; in the assay on p-ERK1/2 in HCT116 cells it was 1 to 10 nM; with NCI-H292 cells, 1 to 10 nM. Also, the EC50 in the assay with BRAF-MEK1 was in the range of 50 to 200 nM.
With `CNS(=O)(=O)Nc1cccc(CN2Cc3c(F)cc(Oc4ncccn4)cc3OC2=O)c1F` [Compound 117], the results for the concentration for half-maximal inhibition (IC50) at MEK1, in the assay on p-ERK1/2 in HCT116 cells and in the assay on NCI-H292 cells were 5 to 50 nM, 1 to 10 nM and 10 to 100 nM, respectively. Besides, the EC50 in the assay with BRAF-MEK1 lay within 200 to 1000 nM.
As to `CNS(=O)(=O)Nc1cccc(CN2C(=O)Oc3c(ccc(Oc4ncco4)c3F)C23COC3)c1F` [Compound 82], the values for the IC50 at MEK1, in the assay with p-ERK1/2 in HCT116 cells and with NCI-H292 cells were less than 5 nM, 1 to 10 nM and 1 to 10 nM, respectively. Moreover, the EC50 in the assay with BRAF-MEK1 lay within 200 to 1000 nM.
With `CNS(=O)(=O)Nc1cccc(CN2Cc3c(F)cc(OC(=O)N(C)C)cc3OC2=O)c1F` [Compound 118, 5-fluoro-3-(2-fluoro-3-((N-methylsulfamoyl)amino)benzyl)-2-oxo-3,4-dihydro-2H-benzo[e][1,3]oxazin-7-yl dimethylcarbamate], the IC50 was less than 5 nM on MEK1, 1 to 10 nM in the assay with p-ERK1/2 in HCT116 cells and less than 1 nM in the assay on NCI-H292 cells. Also, the EC50 in the assay on BRAF-MEK1 lay within 50 to 200 nM.
The corresponding values for `CNS(=O)(=O)Nc1cccc(CN2C(=O)Oc3cc(Oc4cccnn4)ccc3[C@H]2C)c1F` (single isomer, unassigned) [Compound 71] are 5 to 50 nM, 10 to 100 nM, 1 to 10 nM and 200 to 1000 nM.
The corresponding values for `CNS(=O)(=O)Nc1cccc(CN2C(=O)Oc3cc(Oc4cccnn4)c(F)cc3C23COC3)c1F` [Compound 58, 6-fluoro-3-({2-fluoro-3-[(methylsulfamoyl)amino]phenyl}methyl)-7-(pyridazin-3-yloxy)-2,3-dihydrospiro[1,3-benzoxazine-4,3′-oxetan]-2-one] are less than 5 nM, less than 1 nM, less than 1 nM and less than 50 nM.
On to `CNS(=O)(=O)Nc1cccc(CN2C(=O)Oc3cc(Oc4cccnn4)cc(F)c3[C@H]2C)c1F` (single isomer, unassigned) [Compound 57], for which the IC50 was 5 to 50 nM at MEK1, 1 to 10 nM in the assay with p-ERK1/2 in HCT116 cells and 1 to 10 nM in the assay with NCI-H292 cells. For the same molecule, the EC50 with BRAF-MEK1 is 50 to 200 nM.

A word on the IC50: it is the concentration at which inhibition is half-maximal.
